From article PMC9447362
Read-outs that look alike come from different tables or passages of the source.

Test system: P4 G4
Test: In vitro translation (IVT) assays
Assay type: biochemical, SARS-CoV-2

SMILES: NCCOc1cc(C(=O)Nc2cc(OCCN3CCCC3)c3ccccc3n2)nc(C(=O)Nc2cc(OCCN3CCCC3)c3ccccc3n2)c1 [PDP]
- IVT of P4-Mut (P4-Mut (G/A mutations)): not for P4-Mut

SMILES: C[n+]1ccc(-c2c3nc(c(-c4cc[n+](C)cc4)c4ccc([nH]4)c(-c4cc[n+](C)cc4)c4nc(c(-c5cc[n+](C)cc5)c5ccc2[nH]5)C=C4)C=C3)cc1 [TMPyP4, 5,10,15,20-tetrakis-(N-methyl-4-pyridyl)porphine]
- IVT of P4-Mut: not for P4-Mut
